Patent US8017652B2, “Activators of peroxisome proliferator-activated receptors” (Kowa Company Ltd., priority 2000, dated 2011)

What was measured:
[1] = target: T1, PPAR α (Homo sapiens, UniProt Q07869); assay: Ligand activity for PPAR α (PPRE luciferase reporter in COS-7 cells); format: cell-based; settings: 10 μM, 24 hours, FIG. 3; for luciferase activity, PPAR α expression vector not introduced (−) / luciferase activity, PPAR α expression vector introduced (+): firefly luciferase standardized by renilla luciferase; for luciferase activity, PPAR α expression vector introduced (+): RXR α + PPAR α + PPRE reporter
T1 construct: expressed in transfected cells; host or cells: COS-7 (monkey kidney)
T1 sequence (Q07869 1-468): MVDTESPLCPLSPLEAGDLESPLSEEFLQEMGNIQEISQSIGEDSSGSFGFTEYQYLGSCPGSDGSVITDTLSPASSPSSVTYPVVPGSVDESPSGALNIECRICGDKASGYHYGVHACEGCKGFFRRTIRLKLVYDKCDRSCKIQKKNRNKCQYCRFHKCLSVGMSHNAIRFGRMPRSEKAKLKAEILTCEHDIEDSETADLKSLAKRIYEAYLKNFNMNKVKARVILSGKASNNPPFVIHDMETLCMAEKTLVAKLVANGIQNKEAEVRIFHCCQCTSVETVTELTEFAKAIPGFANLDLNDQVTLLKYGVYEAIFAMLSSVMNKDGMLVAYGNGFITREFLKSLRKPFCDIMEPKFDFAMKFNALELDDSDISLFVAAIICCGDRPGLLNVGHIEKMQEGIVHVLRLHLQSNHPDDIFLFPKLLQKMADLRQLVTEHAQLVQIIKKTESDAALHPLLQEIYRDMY
T1 sequence (P19793 1-462 partner): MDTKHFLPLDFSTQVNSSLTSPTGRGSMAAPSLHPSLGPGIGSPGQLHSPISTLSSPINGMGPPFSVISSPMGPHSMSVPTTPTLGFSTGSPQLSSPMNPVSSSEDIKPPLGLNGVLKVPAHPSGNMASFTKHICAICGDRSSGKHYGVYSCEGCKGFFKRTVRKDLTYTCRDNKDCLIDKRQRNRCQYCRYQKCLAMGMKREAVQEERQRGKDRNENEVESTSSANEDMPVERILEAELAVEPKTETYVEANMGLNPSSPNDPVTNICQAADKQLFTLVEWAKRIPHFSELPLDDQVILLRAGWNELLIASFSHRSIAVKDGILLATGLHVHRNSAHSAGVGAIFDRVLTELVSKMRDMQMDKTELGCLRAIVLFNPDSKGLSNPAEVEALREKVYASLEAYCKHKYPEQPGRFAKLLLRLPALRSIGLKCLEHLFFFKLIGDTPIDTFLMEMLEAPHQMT
Protocol: COS-7 cells, a cell line derived from monkey kidney, were cultured at 37° C. in DMEM medium containing 10% fetal calf serum in the presence of 5% CO2. Then, expression vectors of RXR α (retinoic acid X receptor α) and PPAR α, and a reporter vector incorporated with PPRE (peroxisome proliferator-responsive element) as a PPAR-responsive element were cotransfected into the cells, and the cells were cultured for 24 hours. In order to examine the effect of NIK-333, a solution of NIK-333 or Wy-14643(selective agonist of PPAR α) in ethanol was added at a final concentration of 10 μM. After cultivation for 24 hours, the activity of firefly luciferase was measured. The measured values were represented as values standardized by using the renilla luciferase activity.

[2] = test system: PPAR α mRNA; assay: Expression of PPAR α mRNA in human cell line (RT-PCR); format: cell-based; settings: Caco-2 cells, serum-free medium, 10 μM, 0-5 hours after addition, FIG. 1
Protocol: (§1) Caco-2 cells (derived from colon cancer) as a human cell line were cultured at 37° C. in RPMI-1640 medium containing 10% fetal calf serum in the presence of 5% C02. The medium was then replaced with serum-free RPMI-1640 medium and the cells were cultured for 48 hours. In order to examine the effect of NIK-333, a solution of NIK-333 in ethanol was added at a final concentration of 10 μM. At 0, 0.5, 1, 2 and 5 hours after the addition, RNA was extracted to observe. mRNA for PPAR α, PPAR γ1 and PPAR γ2 by the RT-PCR method.

[3] = test system: PPAR γ1 mRNA; assay: Expression of PPAR γ1 mRNA in human cell line (RT-PCR); format: cell-based; settings: Caco-2 cells, serum-free medium, 10 μM, 0-5 hours after addition, FIG. 2
Protocol: as §1

[4] = test system: PPAR γ2 mRNA; assay: Expression of PPAR γ2 mRNA in human cell line (RT-PCR); format: cell-based; settings: Caco-2 cells, serum-free medium, 10 μM, 0-5 hours after addition
Protocol: as §1

[5] = test system: hepatoma; settings: clinical, cited from earlier work

SMILES	luciferase activity, PPAR α expression vector not introduced (−) [1]	luciferase activity, PPAR α expression vector introduced (+) [1]	expression of PPAR α mRNA [2]	expression of PPAR γ1 mRNA [3]	expression of PPAR γ2 mRNA [4]	increasing action of ligand activity compared with Wy-14643 [1]	recurrence of hepatoma after radical treatment ([5]; long-term administration for one-year)	liver function failure or other adverse effect during the administration ([5]; long-term administration)
Cc1cccc(Nc2cc(Cl)nc(SCC(=O)O)n2)c1C [Wy-14643, reference compound]	failed to increase the luciferase activity	increased the luciferase activity						
CC(C)=CCC/C(C)=C/CC/C(C)=C/C=C/C(C)=C/C(=O)O [NIK-333, (2E,4E,6E,10E)-3,7,11,15-Tetramethyl-2,4,6,10,14-hexadecapentaenoic acid]	failed to increase the luciferase activity	increased the luciferase activity	observed from 0.5 hour after the addition	also observed from 0.5 hour after the addition	not observed	almost equivalent to the action of Wy-14643	significantly inhibited recurrence of hepatoma	almost no liver function failure or almost no other adverse effect
